From the supplement of paper PMC10307832

Tests used:
Assay in all cases: relative viability (nuclei count vs DMSO), 5 days (fraction); higher = more cells survive
PC-14 = system: PC-14
How it was run: (§1)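 One day after seeding in 1536-well plates, lung cancer cell lines were dosed by pin tool. Dosing was either single-drug or a fixed anchor-drug dose plus five library-drug doses (not always all listed) in √10 steps. After 5 days, nuclei were stained in one fix-and-stain step and counted on 4× images, and relative viability is the nuclei count of treated wells over that of vehicle wells, given as the median of duplicate plates.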

NCI-H2085 = system: NCI-H2085
How it was run: as §1

NCI-H322M = system: NCI-H322M
How it was run: as §1

NCI-H647 = system: NCI-H647
How it was run: as §1

NCI-H2087 = system: NCI-H2087
How it was run: as §1

NCI-H1944 = system: NCI-H1944
How it was run: as §1

LOU-NH91 = system: LOU-NH91
How it was run: as §1

NCI-H1648 = system: NCI-H1648
How it was run: as §1

201T = system: 201T
How it was run: as §1

NCI-H596 = system: NCI-H596
How it was run: as §1

HCC-44 = system: HCC-44
How it was run: as §1

NCI-H2170 = system: NCI-H2170
How it was run: as §1

PC-3 [JPC-3] = system: PC-3 [JPC-3]
How it was run: as §1

NCI-H2023 = system: NCI-H2023
How it was run: as §1

NCI-H1437 = system: NCI-H1437
How it was run: as §1

NCI-H1734 = system: NCI-H1734
How it was run: as §1

LK-2 = system: LK-2
How it was run: as §1

HCC-78 = system: HCC-78
How it was run: as §1

NCI-H2228 = system: NCI-H2228
How it was run: as §1

SK-LU-1 = system: SK-LU-1
How it was run: as §1

NCI-H1651 = system: NCI-H1651
How it was run: as §1

HCC-366 = system: HCC-366
How it was run: as §1

Which results are given for Nc1cccc2c1CN(C1CCC(=O)NC1=O)C2=O (stereo not given) [Lenalidomide] + CC(=O)Nc1cccc(-n2c(=O)n(C3CC3)c(=O)c3c(Nc4ccc(I)cc4F)n(C)c(=O)c(C)c32)c1 [Trametinib] (partner 0.02 µM)?
relative viability (PC-14; first compound 0.253 µM): 0.839; relative viability (PC-14; first compound 0.8 µM): 0.722; relative viability (PC-14; first compound 2.53 µM): 0.981; relative viability (PC-14; first compound 8 µM): 0.779; relative viability (NCI-H2085; first compound 0.253 µM): 0.507; relative viability (NCI-H2085; first compound 0.8 µM): 0.405; relative viability (NCI-H2085; first compound 2.53 µM): 0.515; relative viability (NCI-H2085; first compound 8 µM): 0.464; relative viability (NCI-H322M; first compound 0.253 µM): 0.507; relative viability (NCI-H322M; first compound 0.8 µM): 0.527; relative viability (NCI-H322M; first compound 2.53 µM): 0.508; relative viability (NCI-H322M; first compound 8 µM): 0.511; relative viability (NCI-H647; first compound 0.253 µM): 0.47; relative viability (NCI-H647; first compound 0.8 µM): 0.413; relative viability (NCI-H647; first compound 2.53 µM): 0.691; relative viability (NCI-H647; first compound 8 µM): 0.422; relative viability (NCI-H2087; first compound 0.253 µM): 0.191; relative viability (NCI-H2087; first compound 2.53 µM): 0.28; relative viability (NCI-H2087; first compound 8 µM): 0.186; relative viability (NCI-H1944; first compound 0.253 µM): 0.385; relative viability (NCI-H1944; first compound 2.53 µM): 0.427; relative viability (NCI-H1944; first compound 8 µM): 0.395; relative viability (LOU-NH91; first compound 0.253 µM): 0.786; relative viability (LOU-NH91; first compound 0.8 µM): 0.78; relative viability (LOU-NH91; first compound 2.53 µM): 0.771; relative viability (LOU-NH91; first compound 8 µM): 0.679; relative viability (NCI-H1648; first compound 0.253 µM): 0.556; relative viability (NCI-H1648; first compound 2.53 µM): 0.597; relative viability (NCI-H1648; first compound 8 µM): 0.476; relative viability (201T; first compound 0.253 µM): 0.719; relative viability (201T; first compound 0.8 µM): 0.754; relative viability (201T; first compound 2.53 µM): 0.762; relative viability (201T; first compound 8 µM): 0.713; relative viability (NCI-H596; first compound 0.253 µM): 0.73; relative viability (NCI-H596; first compound 0.8 µM): 0.83; relative viability (NCI-H596; first compound 2.53 µM): 0.938; relative viability (NCI-H596; first compound 8 µM): 0.766; relative viability (HCC-44; first compound 0.253 µM): 1.08; relative viability (HCC-44; first compound 0.8 µM): 0.829; relative viability (HCC-44; first compound 2.53 µM): 1.11; relative viability (HCC-44; first compound 8 µM): 1.05; relative viability (NCI-H2170; first compound 0.253 µM): 0.933; relative viability (NCI-H2170; first compound 0.8 µM): 0.886; relative viability (NCI-H2170; first compound 2.53 µM): 0.954; relative viability (NCI-H2170; first compound 8 µM): 0.823; relative viability (PC-3 [JPC-3]; first compound 0.253 µM): 0.705; relative viability (PC-3 [JPC-3]; first compound 0.8 µM): 0.681; relative viability (PC-3 [JPC-3]; first compound 2.53 µM): 0.731; relative viability (PC-3 [JPC-3]; first compound 8 µM): 0.743; relative viability (NCI-H2023; first compound 0.253 µM): 0.554; relative viability (NCI-H2023; first compound 0.8 µM): 0.584; relative viability (NCI-H2023; first compound 2.53 µM): 0.444; relative viability (NCI-H2023; first compound 8 µM): 0.504; relative viability (NCI-H1437; first compound 0.253 µM): 0.523; relative viability (NCI-H1437; first compound 0.8 µM): 0.365; relative viability (NCI-H1437; first compound 2.53 µM): 0.611; relative viability (NCI-H1437; first compound 8 µM): 0.486; relative viability (NCI-H1734; first compound 0.253 µM): 0.69; relative viability (NCI-H1734; first compound 0.8 µM): 0.606; relative viability (NCI-H1734; first compound 2.53 µM): 0.702; relative viability (NCI-H1734; first compound 8 µM): 0.605; relative viability (LK-2; first compound 0.253 µM): 0.772; relative viability (LK-2; first compound 0.8 µM): 0.747; relative viability (LK-2; first compound 2.53 µM): 0.746; relative viability (LK-2; first compound 8 µM): 0.717; relative viability (HCC-78; first compound 0.253 µM): 0.728; relative viability (HCC-78; first compound 0.8 µM): 0.633; relative viability (HCC-78; first compound 2.53 µM): 0.692; relative viability (HCC-78; first compound 8 µM): 0.822; relative viability (NCI-H2228; first compound 0.253 µM): 0.629; relative viability (NCI-H2228; first compound 0.8 µM): 0.315; relative viability (NCI-H2228; first compound 2.53 µM): 0.695; relative viability (NCI-H2228; first compound 8 µM): 0.363; relative viability (SK-LU-1; first compound 0.253 µM): 0.515; relative viability (SK-LU-1; first compound 0.8 µM): 0.443; relative viability (SK-LU-1; first compound 2.53 µM): 0.596; relative viability (SK-LU-1; first compound 8 µM): 0.432; relative viability (NCI-H1651; first compound 0.253 µM): 0.79; relative viability (NCI-H1651; first compound 0.8 µM): 0.932; relative viability (NCI-H1651; first compound 2.53 µM): 0.902; relative viability (NCI-H1651; first compound 8 µM): 0.82; relative viability (HCC-366; first compound 0.253 µM): 0.33; relative viability (HCC-366; first compound 0.8 µM): 0.353; relative viability (HCC-366; first compound 2.53 µM): 0.386; relative viability (HCC-366; first compound 8 µM): 0.264
